# Values of other authors in PMC9292820 (British Journal of Clinical Pharmacology, 2021).
# Legend:
# [1] = tested on: healthy male participants
# angiotensin II (Ang‐II) = conditions: rats, bolus injection
Substance,decrease in pupil/iris ratio (miosis) [1],levels of angiotensin II (Ang‐II) (angiotensin II (Ang‐II))
buprenorphine,up to 50%,
"opiorphin (QRFSR; Opiorphin; UniProt Q99935 22-26, looked up)",,increased levels
